Reference: PMC7956753, “Development of ^18F-Labeled Radiotracers for PET Imaging of the Adenosine A2A Receptor: Synthesis, Radiolabeling and Preliminary Biological Evaluation” (International Journal of Molecular Sciences, 2021)

Legend:
[1] = Lipophilicity (LogD7.4), shake-flask method in n-octanol/PBS; assay type: physicochemical; conditions: pH 7.4, n-octanol-PBS, RT, n = 3
Description: (§1) The chemical stability of [^18F]PPY1 and [^18F]PPY2 was investigated in isotonic saline, phosphate-buffered saline (PBS, pH 7.4) and n-octanol by incubation at 37 °C. Samples were taken at 15, 30 and 60 min of incubation time and analyzed by radio-TLC and radio-HPLC. LogD7.4 values of [^18F]PPY1 and of [^18F]PPY2 were experimentally determined in n-octanol/PBS at RT by the shake-flask method. The measurements were performed in triplicate.

[2] = In vitro chemical stability in saline, PBS and n-octanol; assay type: physicochemical; conditions: 37 °C up to 60 min
Description: as §1

[3] = In vivo metabolism (radiometabolite analysis of plasma and brain by radio-HPLC); conditions: CD-1 mice, i.v., 30 min p.i., n = 2
Description: The radiotracer was administered i.v. as bolus in awake CD-1 mice (40 MBq [^18F]PPY1; 30 MBq [^18F]PPY2; n = 2, respectively). At 30 min post injection (p.i.), blood samples were taken retroorbitally from the anesthetized animals. Plasma was separated by centrifugation at 8000 rpm at RT for 1 min (Centrifuge 5418, Eppendorf Vertrieb Deutschland GmbH, Wesseling-Berzdorf, Germany), and brain homogenized in 1 mL water on ice (10 strokes of a PTFE plunge at 1000 rpm in a borosilicate glass cylinder; Potter S Homogenizer; B. Braun Melsungen AG, Melsungen, Germany). For protein precipitation and extraction an ice-cold mixture of acetone/water (4/1; v/v) was used in a ratio of 4:1 (v/v) of solvent to plasma or brain homogenate, respectively. The samples were vortexed for 3 min, equilibrated on ice for 5 min, and centrifuged for 5 min at 10,000 rpm. After separating the supernatant, the precipitates were washed with 100 µL of the solvent mixture and subjected to the same procedure. The combined supernatants were concentrated at 75 °C under nitrogen flow to a final volume of approx. 100 µL and analyzed by analytical radio-HPLC (see section quality control). To determine the percentage of activity in the supernatants compared to total activity, aliquots of each step as well as the precipitates were quantified by a gamma counter (Wallac Wizard 1480; PerkinElmer, Turku, Finland).

A2AR = target: T1, A2AR (Mus musculus, UniProt Q60613); test: In vitro autoradiography on mouse brain slices; assay type: binding, CD-1 mice; conditions: for fraction of total binding displaced by ZM241385 in striatum (specific binding): 10 µM ZM241385
T1 construct: Brains of CD-1 mice frozen in isopentane were cut using a cryostat; from tissue; host or cells: CD-1 mouse brain sections
T1 sequence (Q60613 whole entry): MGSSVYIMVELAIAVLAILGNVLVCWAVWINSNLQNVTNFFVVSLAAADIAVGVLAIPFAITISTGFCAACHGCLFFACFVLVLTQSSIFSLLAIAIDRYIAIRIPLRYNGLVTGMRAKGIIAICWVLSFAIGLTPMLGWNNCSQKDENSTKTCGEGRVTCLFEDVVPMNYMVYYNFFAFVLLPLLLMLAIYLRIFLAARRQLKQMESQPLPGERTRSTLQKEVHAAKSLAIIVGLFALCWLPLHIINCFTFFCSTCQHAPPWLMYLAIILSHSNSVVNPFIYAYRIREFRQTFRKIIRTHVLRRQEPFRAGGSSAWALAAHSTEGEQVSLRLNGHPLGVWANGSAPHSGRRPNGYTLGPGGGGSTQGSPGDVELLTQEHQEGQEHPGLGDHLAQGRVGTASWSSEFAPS
Description: Brains of CD-1 mice frozen in isopentane were cut using a cryostat, thaw-mounted onto microscope slides, and after air-drying stored at −80 °C until use. Briefly, the brain sections were dried in a stream of cold air, and pre-incubated in 50 mM TRIS-HCl buffer (pH 7.4, 100 mM NaCl, 5 mM MgCl2, 1 mM EDTA) containing 1 µU/mL adenosine deaminase (ADA) for 15 min at RT. Afterwards, brain sections were incubated with 0.24 MBq/mL of [^18F]PPY1 (0.2 nM) or 0.26 MBq/mL of [^18F]PPY2 (5.1 nM) in buffer for 90 min at RT. Non-specific binding was determined in the presence of 10 µM ZM241385. Displacement of both radiotracers was evaluated with 10 µM PPY1 and PPY2, respectively. Subsequently, the sections were washed twice for 5 min in ice-cold TRIS-HCl buffer, and dipped for 5 s in ice-cold deionized water. The sections were rapidly dried in a stream of cold air before being exposed overnight on an imaging plate. Developed autoradiographs were analyzed in a phosphor imager (HD-CR 35, Duerr NDT GmbH, Bietigheim-Bissingen, Germany). Quantification was performed by using 2D-densitometric analysis (AIDA 2.31 software, raytest Isotopenmessgeräte GmbH, Straubenhardt, Germany).

[4] = PET/MR imaging (brain uptake and organ distribution); assay type: in vivo; conditions: CD-1 mice; for SUV60 min bladder / SUV60 min small intestine: 60 min; for maximum SUV ratio of striatum-to-cerebellum: after 4 min; for initial brain uptake, standardized uptake value (SUV): between 2 and 3 min; for initial uptake in striatum and cerebellum: followed by a fast washout
Description: For the time of the experiments, CD-1 mice were kept in a dedicated climatic chamber with free access to water and food under a 12:12 h dark:light cycle at a constant temperature (24 °C). The animals were anaesthetized (anesthesia unit U-410; agntho’s; Lidingö; Sweden) with isoflurane (1.8%, 0.35 L/min) delivered in a 60% oxygen/40% air mixture (Gas Blender 100 Series, MCQ instruments, Rome, Italy) and maintained at 37 °C with a thermal bed system. The formulated radiotracer was injected into the tail vein ([^18F]PPY1: 3.2–4.3 MBq in 150 µL isotonic saline and <1% EtOH/DMSO; Am: 150 GBq/µmol; […]; Am: 80 GBq/µmol) followed by a 60 min PET/MR scan (PET/MR 1Tesla; nanoScan®, MEDISO Medical Imaging Systems, Budapest, Hungary). Each PET image was corrected for random coincidences, dead time, scatter and attenuation (AC), based on a whole body (WB) MR scan. The list mode data was sorted into sinograms using a framing scheme of 12 × 10 s, 6 × 30 s, 5 × 300 s, […]. The reconstruction parameters for the list mode data were 3D-ordered subset expectation maximization (OSEM), 4 iterations, 6 subsets, energy window: 400–600 keV, coincidence mode: 1–5, ring difference: 81. The mice were positioned prone in a special mouse bed (heated up to 37 °C), with the head fixed to a mouth piece for the anesthetic gas supply with isoflurane in 40% air and 60% oxygen (anesthesia unit: U-410, agnthos, Lidingö, Sweden; Gas blender: MCQ, Rome, Italy). The PET data were collected by a continuous WB scan during the entire investigation. Following the 60 min PET scan a T1 weighted WB gradient echo sequence (TR/TE: 20/6.4 ms, NEX: 1, FA: 25, FOV: 64 × 64 mm, matrix: 128 × 128, slice thickness: 0.5 mm) was performed for AC and anatomical orientation. Image registration and evaluation of the volume of interest (VOI) was done with PMOD 3.9 (PMOD technologies LLC, Zurich, Switzerland). The respective brain regions were identified using the mouse brain atlas template Ma-Benveniste-Mirrione-FDG. Spherical VOI with diameters of 1 to 2 mm were placed at the center of the liver, stomach, and spleen. Small intestine, kidney, and bladder VOI were delineated from the PET signal. Heart wall and blood were delineated from the T1 weighted image avoiding spill over from neighboring organs. The activity data is expressed as mean SUV of the overall VOI.

Row | Compound | logD [1] | Stability in saline, PBS and n-octanol [2] | intact radiotracer in plasma, of total activity [3] | distribution of radiotracer binding in mouse brain (A2AR) | fraction of total binding displaced by ZM241385 in striatum (specific binding) (A2AR) | initial SUV in heart, spleen, stomach and liver [4] | specific binding in striatum in vivo (PET) [4] | SUV60 min bladder [4] | SUV60 min small intestine [4] | maximum SUV ratio of striatum-to-cerebellum [4] | initial brain uptake, standardized uptake value (SUV) [4] | initial uptake in striatum and cerebellum [4] | intact radiotracer in brain, of total activity [3] | intact radiotracer in brain, of total activity ([3]; listed as [18F]PPY2)
1 | Nc1nc(-c2ccco2)c2cnn(Cc3ccc([18F])cc3)c2n1 [[^18F]PPY1] | 1.59 ± 0.15 | proven | 13% | displaceable binding was detected in various brain regions | 42% | < 3 SUV | lack of specific binding | 8.2 SUV | 21.9 SUV | 1.5 | 1.2–1.4 SUV | ~ 1.3 SUV | – | –
2 | Nc1nc(-c2ccco2)c2cnn(Cc3ccccc3[18F])c2n1 [[^18F]PPY2] | 2.01 ± 0.16 | proven | 21% | observed in the striatum | 62% | < 3 SUV | lack of specific binding | 18.5 SUV | 6.7 SUV | 1.3 | 1.2–1.4 SUV | ~ 1.3 SUV | 83% | more than 76%
